Data as given in patent US20130023504A1, “Modulation of Prostaglandin/Cyclooxygenase Metabolic Pathways” (HUNTER-FLEMING LIMITED, priority 2006, published 2013).

System: human peripheral blood mononuclear cells
Assay: Prostaglandin (PGD2, PGE2, 15d-PGJ2) production by human peripheral blood mononuclear cells with/without TNF-α, EIA (Example 2)
Format: cell-based
Experimental: Mononuclear cells (monocytes and lymphocytes) were prepared by subjecting 48 ml of whole human blood to Ficoll/hypaque density centrifugation. Blood was layered on top of the ficoll (density=1.077 g/ml) and centrifuged at 400 g for 1 hour (22° C.), after which cells at the interphase were removed by pipette and transferred to fresh tubes. Tubes were filled with RPMI 1640 culture medium (2 volumes) thoroughly mixed and then centrifuged at 400 g for 5 minutes (22° C.). The supernatant was discarded and the cell pellet was re-suspended in RPMI 1640 culture medium and the volume adjusted to give the appropriate number of cells per incubation as indicated in the results section below. Cells were incubated in sterile plastic 1.5 ml tubes in a final volume of 1 ml RPMI 1640 medium for 18 hours at 37° C., 5% CO2 in air and 100% humidity. 7β-OH-EPIA was then added and cells incubated for a further hour at 37° C. before adding recombinant human Tumour Necrosis Factor-α (TNF-α) and incubations continued for a further 3 hours. 7β-OH-EPIA was prepared in dimethyl sulphoxide (DMSO), all remaining agents were prepared in RPMI 1640 medium. The requisite controls contained either medium or the same concentration of DMSO which was always <0.1% v/v. Incubations were terminated by centrifuging tubes at 11,000 g for 30 seconds at 22° C. and transferring the supernatants to fresh 1.5 ml tubes. Samples were then either processed immediately for PGD2 estimation as described below or stored at −20° C. prior to PGE2 or 15d-PGJ2 measurement.
Prostaglandin production by human monocytic cells in response to 7β-OH-EPIA in either the absence or presence of stimulation with TNF-α was determined by measuring the extracellular levels of eicosanoid using commercially available EIA kits.
PGD2 cannot be assayed directly from cell supernatants because it is chemically unstable and rapidly degrades to a number of J series prostaglandins including, PGJ2, Δ^12-PGJ2, and 15-deoxy-Δ^12,14-PGJ2. In order to circumvent this problem, unstable PGD2 was chemically treated to give a stable derivative, in this case prostaglandin D2-Methoxamine (PGD2-MOX) which was be stored for subsequent analysis. Immediately following termination of incubations, 100 μl of sample supernatant was added to 1.5 ml tubes containing 100 μl of a Methyl Oximating Reagent (methoxy)amine hydrochloride (MOX-HCl) and sodium acetate dissolved in a 10:90 v/v, ethanol/water solution. Tubes were then placed in a water bath and the reaction allowed to proceed for 30 minutes at 60° C. At the end of this period samples were stored at −80° C. Levels of PGD2 were subsequently estimated using Cayman Chemical's Prostaglandin D2-MOX EIA Kit (Cat. No. 512011).
Extracellular levels of PGE2 were estimated using R & D Systems' Parameter PGE2 EIA Kit according to the manufacturer's instructions for the high sensitivity protocol.
Extracellular levels of 15d-PGJ2 were estimated using Assay Designs' Correlate-EIA Prostaglandin 15-deoxy-Δ^12,14-prostaglandin J2 EIA Kit (Cat. No. 900-023) according to the manufacturer's instructions.
Results are expressed as the mean±s.d. for n=3 incubations. An unpaired Students t-Test was used to determine the probability (P) that two sets of data were different from each other. The difference was considered to be significant when P<0.05. Statistical calculations were carried out on an Apple Macintosh computer using the software package Statview, from Abacus Concepts Inc.

Compound: CC12CCC3C(C1CCC2=O)[C@@H](O)C[C@H]1C[C@@H](O)CCC31C (stereo partly drawn) [Compound 7β-OH-EPIA, 7β-hydroxy-EPIAndrosterone]
- effect on TNF-α-induced PGD2 biosynthesis (0.1 nM-100 nM, TNF-α (0.5 μg/ml)): no effect
- increase in 15d-PGJ2 production (0.1 nM-1000 nM, in the presence of TNF-α, vs respective control): 2-2.5 fold
- increase in 15d-PGJ2 levels (0.1 nM-1000 nM, without TNF-α, vs DMSO controls): 9-12 fold
- 15d-PGJ2 levels in cell supernatants (0.1 nM, 4 hours, without TNF-α): 506 ± 101 pg/mL
- 15d-PGJ2 levels in cell supernatants (0.1 nM, TNF-α (10 ng/ml)): 348 ± 48 pg/mL
- PGE2 levels compared to DMSO controls (1 nM-1000 nM, 4 hours, without TNF-α): not statistically significantly different
- 15d-PGJ2 levels in cell supernatants (1 nM, 4 hours, without TNF-α): 539 ± 51 pg/mL
- 15d-PGJ2 levels in cell supernatants (1 nM, TNF-α (10 ng/ml)): 334 ± 24 pg/mL
- PGE2 levels in cell supernatants (1 nM, TNF-α (10 ng/ml)): 75 ± 25 pg/mL
- 15d-PGJ2 levels in cell supernatants (10 nM, 4 hours, without TNF-α): 520 ± 45 pg/mL
- 15d-PGJ2 levels in cell supernatants (10 nM, TNF-α (10 ng/ml)): 356 ± 85 pg/mL
- PGE2 levels in cell supernatants (10 nM, TNF-α (10 ng/ml)): 82 ± 23 pg/mL
- 15d-PGJ2 levels in cell supernatants (100 nM, 4 hours, without TNF-α): 450 ± 133 pg/mL
- PGD2 levels in cell supernatants (100 nM, 4 hours, without TNF-α): 102 ± 24 pg/mL
- 15d-PGJ2 levels in cell supernatants (100 nM, TNF-α (10 ng/ml)): 406 ± 30 pg/mL
- PGE2 levels in cell supernatants (100 nM, TNF-α (10 ng/ml)): 74 ± 12 pg/mL
- 15d-PGJ2 levels in cell supernatants (1000 nM, 4 hours, without TNF-α): 590 ± 84 pg/mL
- 15d-PGJ2 levels in cell supernatants (1000 nM, TNF-α (10 ng/ml)): 318 ± 100 pg/mL
- effect on TNF-α-induced PGE2 production (1000 nM, TNF-α (10 ng/ml)): no effect
- PGD2 levels in cell supernatants (1000 nM, TNF-α (0.5 μg/ml)): 164 ± 31 pg/mL
